Columns and labels:
rat EP4 receptor = rat EP4 receptor (Rattus norvegicus (Rat), UniProt P43114); test: EP4 antagonistic activity measurement using prostanoid receptor subtype expressing cells (cAMP); type: cell-based; settings: CHO cells expressing rat EP4 receptor; inhibition of cAMP production by PGE2 10 nM
Procedure: CHO cells expressing rat EP4 receptor subtypes were prepared according to the methods of Nishigaki et al. (FEBS Letters, Vol. 364, p. 339-341, 1995), and used for experiment. Cultured subconfluent cells were detached, and suspended in an assay medium (MEM containing 1 mmol/L IBMX, 1% HSA) in a concentration of 1×10^6 cells/mL. For reaction, PGE2 was added to the cell suspension (25 μL) in a final concentration of 10 nmol/L, either alone or as a 25-μL PGE2 solution containing the test compound. After 30 minutes of reaction at room temperature, the amount of cAMP in the cells was quantified according to the method in the descriptions of the cAMP assay kit (CISBIO).
The antagonistic effect (IC50 value) of the test compound was calculated as a value that represents an inhibition rate against a reaction with PGE2 alone at 10 nM, a concentration that produces a submaximal cAMP producing effect.

[1] = Pharmacokinetics test (hepatic microsome stability test); settings: human hepatic microsome 1 mg/mL, 37° C., 60 min, 1 μmol/L
[2] = test system: mouse colorectal cancer cell line CT26; test: Anti-tumor effect in allograft model of mouse colorectal cancer cell line CT26; type: in vivo; settings: 10 mg/kg orally, twice a day, Balb/C mouse, 21 days from transplant
Procedure: The anti-tumor effect of the present compound was evaluated in an allograft model of the mouse colorectal cancer cell line CT26. CT26 was cultured in a CO2 incubator, using an RPMI-1640 medium containing 10 vol % inactivated fetal bovine serum (FBS), 100 units/mL of penicillin, and 100 µg/mL of streptomycin. On the day of transplant, CT26 was harvested after removing the culture supernatant, and washing the cells with phosphate buffer (hereinafter, “PBS”). The harvested CT26 cells were suspended in Hank's buffer to obtain transplant cells. The transplant cells (3×10^5) were then subcutaneously transplanted to the right back of a female Balb/C mouse (Charles River Laboratories Japan Inc.) under anesthesia. The present compound was orally administered in a dose of 10 mg/kg, once on the day of transplant, and twice a day from the next day. For the control group, distilled water was administered for the same duration as in the present compound-administered group. The tumor volume (mm^3) was determined by calculating a relative tumor volume from the measured tumor lengths along the minor axis and major axis using a digital caliper, according to the following formulae 1 and 2. Tumor volume=[(minor axis)^2×major axis]/2 Relative tumor volume=medium value of tumor volumes of each group after 21 days from transplant/medium value of tumor volume of control group after 21 days from transplant

Chain of rat EP4 receptor (P43114 whole entry): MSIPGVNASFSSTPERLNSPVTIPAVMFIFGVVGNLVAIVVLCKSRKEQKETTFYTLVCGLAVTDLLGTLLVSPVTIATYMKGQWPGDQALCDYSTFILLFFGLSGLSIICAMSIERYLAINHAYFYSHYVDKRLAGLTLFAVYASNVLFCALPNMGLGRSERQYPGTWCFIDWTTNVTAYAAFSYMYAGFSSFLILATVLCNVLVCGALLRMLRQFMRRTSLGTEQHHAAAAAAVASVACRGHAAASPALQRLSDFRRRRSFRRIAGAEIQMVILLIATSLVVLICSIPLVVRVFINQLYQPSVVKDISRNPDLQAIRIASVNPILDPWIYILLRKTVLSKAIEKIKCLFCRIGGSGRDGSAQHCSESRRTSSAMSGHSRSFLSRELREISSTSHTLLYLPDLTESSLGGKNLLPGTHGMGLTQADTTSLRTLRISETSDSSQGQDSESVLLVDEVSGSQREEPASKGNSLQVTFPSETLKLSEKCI

Structure (SMILES) | IC50 (rat EP4 receptor) | Remaining rate (%) [1] | tumor growth inhibitory effect (relative tumor volume, FIG. 1) [2]
COCCNC(=O)c1ccc2c(c1)[C@]1(CCO2)C[C@H]1C(=O)Nc1cc(C#N)ccc1CCCC(=O)O [Example 2-2, 4-{4-Cyano-2-[({(2′R,4S)-6-[(2-methoxyethyl)carbamoyl]-2,3-dihydrospiro[chromene-4,1′-cyclopropan]-2′-yl}carbonyl)amino]phenyl}butanoic acid] | 5.3 nM | 97% | tumor growth inhibitory effect
CC(C)NC(=O)c1ccc2c(c1)[C@]1(CCO2)C[C@H]1C(=O)Nc1cc(C#N)ccc1CCCC(=O)O [Example 2-13, 4-[4-Cyano-2-({[(2′R,4S)-6-(isopropylcarbamoyl)-2,3-dihydrospiro[chromene-4,1′-cyclopropan]-2′-yl]carbonyl}amino)phenyl]butanoic acid] | 7.8 nM | 100% | tumor growth inhibitory effect
COCCNC(=O)c1cc2c(cc1OC)OCC[C@]21C[C@H]1C(=O)Nc1cc(C#N)ccc1CCCC(=O)O [Example 33-2, 4-{4-Cyano-2-[({(2′R,4S)-7-methoxy-6-[(2-methoxyethyl)carbamoyl]-2,3-dihydrospiro[chromene-4,1′-cyclopropan]-2′-yl}carbonyl)amino]phenyl}butanoic acid] | 8.4 nM | 100% | –
N#Cc1ccc(CCCC(=O)O)c(NC(=O)[C@@H]2C[C@]23COc2ccc(-c4cccnc4)cc23)c1 [Example 36, 4-[4-Cyano-2-({[(2′R,3S)-5-(3-pyridinyl)spiro[1-benzofuran-3,1′-cyclopropan]-2′-yl]carbony}amino)phenyl]butanoic acid] | 4.5 nM | 93% | –
CNC(=O)c1ccc2c(c1)[C@]1(CO2)C[C@H]1C(=O)Nc1cc(C#N)ccc1CCCC(=O)O [Example 37-1, 4-[4-Cyano-2-({[(2′R,3S)-5-(methylcarbamoyl)spiro[1-benzofuran-3,1′-cyclopropan]-2′-yl]carbonyl}amino)phenyl]butanoic acid] | 7.2 nM | 77% | –
COCCNC(=O)c1ccc2c(c1)[C@]1(CO2)C[C@H]1C(=O)Nc1cc(C#N)ccc1CCCC(=O)O [Example 37-2, 4-{4-Cyano-2-[({(2′R,3S)-5-[(2-methoxyethyl)carbamoyl]spiro[1-benzofuran-3,1′-cyclopropan]-2′-yl}carbonyl)amino]phenyl}butanoic acid] | 6.2 nM | 87% | –
COCCNC(=O)c1ccc2c(c1)[C@@]1(C[C@H]1C(=O)Nc1cc(C#N)ccc1CCCC(=O)O)CC2(C)C [Example 38-1, 4-[4-Cyano-2-({[(1S,2R)-6′-[(2-methoxyethyl)carbamoyl]-3′,3′-dimethyl-2′,3′-dihydrospiro[cyclopropane-1, 1′-inden]-2-yl]carbonyl}amino)phenyl]butanoic acid] | 5.4 nM | 69% | –
CNC(=O)c1ccc2c(c1)[C@@]1(C[C@H]1C(=O)Nc1cc(C#N)ccc1CCCC(=O)O)CC2(C)C [Example 38-2, 4-[4-Cyano-2-({[(1S,2R)-3′,3′-dimethyl-6′-(methylcarbamoyl)-2′,3′-dihydrospiro[cyclopropane-1, 1′-inden]-2-yl]carbonyl}amino)phenyl]butanoic acid] | 4.3 nM | 89% | –
CC1(C)C[C@]2(C[C@H]2C(=O)Nc2cc(C#N)ccc2CCCC(=O)O)c2cc(-c3cccnc3)ccc21 [Example 39, 4-[4-Cyano-2-({[(1S,2R)-3′,3′-dimethyl-6′-(3-pyridinyl)-2′,3′-dihydrospiro[cyclopropane-1,1′-inden]-2-yl]carbonyl}amino)phenyl]butanoic acid] | 5.7 nM | 78% | –
